Where “and” joins values, the source holds several entries; their conditions need not be identical. Equal values may be shown once.
biological target: T1, recombinant human Aggrecanase-2 Agg2-Phe628 (Homo sapiens, UniProt Q9UNA0); experiment: Aggrecanase 2 in vitro enzyme assay (Agg-2 FRET, quenched fluorescent peptide substrate); format: biochemical; set-up: purified recombinant human Aggrecanase-2 Agg2-Phe628 (MW=41,737); This is a truncated form of full-length human aggrecanase-2; made in house; host or cells: CHO cells; details: concentration not given
T1 sequence (Q9UNA0 262-628 limits assumed): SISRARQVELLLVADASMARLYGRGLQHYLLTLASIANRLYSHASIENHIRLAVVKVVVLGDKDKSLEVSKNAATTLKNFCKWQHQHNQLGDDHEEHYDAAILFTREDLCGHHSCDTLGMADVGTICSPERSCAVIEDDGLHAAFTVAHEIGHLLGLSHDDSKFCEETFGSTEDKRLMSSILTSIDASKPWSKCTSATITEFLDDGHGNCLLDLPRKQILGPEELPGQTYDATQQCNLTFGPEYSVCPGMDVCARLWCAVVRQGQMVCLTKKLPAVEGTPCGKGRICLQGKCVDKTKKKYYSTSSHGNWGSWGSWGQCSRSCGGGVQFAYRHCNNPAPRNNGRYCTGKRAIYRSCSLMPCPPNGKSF
Method: A continuous assay was used in which the substrate was a synthetic peptide containing a fluorescent group (o-aminobenzyl, Abz), which was quenched by energy transfer to a 2,4-dinitrophenyl group (Dnp). The buffer used in this assay was 50 mM HEPES, pH 7.5, 100 mM NaCl, 5 mM CaCl2, 0.1% CHAPS, 5% glycerol. The source of enzyme was purified recombinant human Aggrecanase-2 Agg2-Phe628 (MW=41,737). This is a truncated form of full-length human aggrecanase-2 that was expressed in CHO cells and purified. The final concentration of Agg2-Phe628 was 0.5 μg/ml. […] It is a synthetic peptide that is designed after a portion of brevican, one of the naturally occurring substrates of Aggrecanase-2, of the sequence Abz-[…]-Dap(Dnp)-KK—NH2 (mass=1740). The concentration of this substrate stock was spectrophotometrically determined using the extinction coefficient at 354 nm of 18,172 M^−1cm^−1. […] The final concentration of substrate in the assay was 25 μM.
Test compounds (in duplicate) were serially diluted from 2 mM to 0.01 μM in 100% DMSO. The total reaction volume was 100 μl. The buffer and enzyme were added first followed by addition of 10× inhibitor from the dilution plate. Enzyme and buffer alone samples were included in order to obtain the maximal rate of substrate cleavage. […] Then substrate was added, mixed and the reaction monitored for 40 min at 30° C. in kinetic mode using λex: 340 nm and % λem: 420 (GeminiXS Molecular Devices).

Molecule | Agg-2 FRET Median PCT INHIB [%]
COc1ccc(C(NC(=O)COc2ccc(Cl)c(C)c2)c2cc(Cl)c3cccnc3c2O)cc1 (stereo not drawn) [N-[(5-chloro-8-hydroxyquinolin-7-yl)(4-methoxyphenyl)methyl]-2-(4-chloro-3-methylphenoxy)acetamide] | 57
COc1c(C(NC(=O)COc2ccccc2)c2ccccc2Cl)cc(Cl)c2cccnc12 (stereo not drawn) [N-[(5-chloro-8-methoxyquinolin-7-yl)(2-chlorophenyl)methyl]-2-phenoxyacetamide] | 32
COc1c(C(NC(=O)COc2ccccc2)c2ccccc2)cc(Cl)c2cccnc12 (stereo not drawn) [N-[(5-chloro-8-methoxyquinolin-7-yl)(phenyl)methyl]-2-phenoxyacetamide] | 50

Other lines, results leading:

Agg-2 FRET Median PCT INHIB [%] | Molecule
41 | Cc1ccc(C(NC(=O)CCCc2ccccc2)c2cc(Cl)c3cccnc3c2O)cc1 (stereo not drawn) [N-[(5-chloro-8-hydroxyquinolin-7-yl)(4-methylphenyl)methyl]-4-phenylbutanamide]
23 | O=C(CCc1ccccc1)NC(c1ccccc1)c1cc(Cl)c2cccnc2c1O (stereo not drawn) [N-[(5-chloro-8-hydroxyquinolin-7-yl)(phenyl)methyl]-3-phenylpropanamide]
50 | CC(=O)NC(c1ccccc1)c1ccc2cccnc2c1O (stereo not drawn) [N-[(8-hydroxyquinolin-7-yl)(phenyl)methyl]acetamide]

same assay, conditions: read-out: Agg2 IC50

IC50 [µM] | Molecule
> 5 | O=C(CCc1ccccc1)NC(c1ccccc1)c1cc(Cl)c2cccnc2c1O (stereo not drawn) [N-[(5-chloro-8-hydroxyquinolin-7-yl)(phenyl)methyl]-3-phenylpropanamide]
1.3 | O=C(COc1ccccc1)NC(c1cnc2ccccc2c1)c1cc(Cl)c2cccnc2c1O (stereo not drawn) [N-[(5-chloro-8-hydroxyquinolin-7-yl)(quinolin-3-yl)methyl]-2-phenoxyacetamide]

same assay, conditions: read-out: Agg-2 FRET Median IC50

Molecule | IC50
COc1ccc(C(NC(=O)COc2cccnc2)c2cc(Cl)c3cccnc3c2O)cc1 (stereo not drawn) [N-[(5-chloro-8-hydroxyquinolin-7-yl)(4-methoxyphenyl)methyl]-2-(pyridin-3-yloxy)acetamide] | 2.98 µM
COc1ccc(C(NC(=O)COc2ccccc2)c2cc(Cl)c3cccnc3c2O)cc1 (stereo not drawn) [N-[(5-chloro-8-hydroxyquinolin-7-yl)(4-methoxyphenyl)methyl]-2-phenoxyacetamide] | 1.12 µM and 1 µM
COc1ccc(OCC(=O)NC(c2ccccc2)c2cc(Cl)c3cccnc3c2O)cc1 (stereo not drawn) [N-[(5-chloro-8-hydroxyquinolin-7-yl)(phenyl)methyl]-2-(4-methoxyphenoxy)acetamide] | 1.38 µM
O=C(NC(c1ccccc1)c1cc(Cl)c2cccnc2c1O)c1ccccc1 (stereo not drawn) [N-[(5-chloro-8-hydroxyquinolin-7-yl)(phenyl)methyl]benzamide] | 1.31 µM
COc1ccc(OCC(=O)NC(c2ccc(OC)cc2)c2ccc3cccnc3c2O)cc1 (stereo not drawn) [N-[(8-hydroxyquinolin-7-yl)(4-methoxyphenyl)methyl]-2-(4-methoxyphenoxy)acetamide] | 4.51 µM
Cc1ccc(C(NC(=O)COc2ccccc2)c2ccc3cccnc3c2O)cc1 (stereo not drawn) [N-[(8-hydroxyquinolin-7-yl)(4-methylphenyl)methyl]-2-phenoxyacetamide] | 3.01 µM
COc1ccc(OCC(=O)NC(c2ccccc2)c2ccc3cccnc3c2O)cc1 (stereo not drawn) [N-[(8-hydroxyquinolin-7-yl)(phenyl)methyl]-2-(4-methoxyphenoxy)acetamide] | 3.34 µM
Cc1ccc(OCC(=O)NC(c2ccccc2)c2ccc3cccnc3c2O)cc1 (stereo not drawn) [N-[(8-hydroxyquinolin-7-yl)(phenyl)methyl]-2-(4-methylphenoxy)acetamide] | 2.47 µM
O=C(NC(c1ccccc1)c1ccc2cccnc2c1O)c1ccccc1 (stereo not drawn) [N-[(8-hydroxyquinolin-7-yl)(phenyl)methyl]benzamide] | 4.7 µM and 5.47 µM
N-[(5-chloro-8-hydroxyquinolin-7-yl)(4-methoxyphenyl)methyl]-2-(4-methylphenoxy)acetamide [Example 80] | 0.774 µM
N-[(8-hydroxyquinolin-7-yl)(4-methoxyphenyl)methyl]-2-(4-phenoxyphenoxy)acetamide [Example 76] | 3.22 µM

The remaining lines, values ahead:

IC50 | Molecule
1.02 µM | O=C(COc1ccc(Cl)cc1)NC(c1ccccc1)c1cc(Cl)c2cccnc2c1O (stereo not drawn) [N-[(5-chloro-8-hydroxyquinolin-7-yl)(phenyl)methyl]-2-(4-chlorophenoxy)acetamide]
19.7 µM | CC(=O)NC(c1ccccc1)c1cc(Cl)c2cccnc2c1O (stereo not drawn) [N-[(5-chloro-8-hydroxyquinolin-7-yl)(phenyl)methyl]acetamide]
3.51 µM | Cc1ccccc1C(NC(=O)COc1ccccc1)c1cc(C)c2cccnc2c1O (stereo not drawn) [N-[(8-hydroxy-5-methylquinolin-7-yl)(2-methylphenyl)methyl]-2-phenoxyacetamide]
0.854 µM | Cc1ccccc1C(NC(=O)COc1ccccc1)c1cc([N+](=O)[O-])c2cccnc2c1O (stereo not drawn) [N-[(8-hydroxy-5-nitroquinolin-7-yl)(2-methylphenyl)methyl]-2-phenoxyacetamide]
2.83 µM | COc1ccc(C(NC(=O)COc2ccc(C)cc2)c2ccc3cccnc3c2O)cc1 (stereo not drawn) [N-[(8-hydroxyquinolin-7-yl)(4-methoxyphenyl)methyl]-2-(4-methylphenoxy)acetamide]
4.41 µM | COc1ccc(C(NC(=O)COc2ccccc2)c2ccc3cccnc3c2O)cc1 (stereo not drawn) [N-[(8-hydroxyquinolin-7-yl)(4-methoxyphenyl)methyl]-2-phenoxyacetamide]
2.39 µM | O=C(COc1ccccc1)NC(c1ccc([N+](=O)[O-])cc1)c1ccc2cccnc2c1O (stereo not drawn) [N-[(8-hydroxyquinolin-7-yl)(4-nitrophenyl)methyl]-2-phenoxyacetamide]
0.908 µM | O=C(COc1ccc(Oc2ccccc2)cc1)NC(c1ccccc1)c1ccc2cccnc2c1O (stereo not drawn) [N-[(8-hydroxyquinolin-7-yl)(phenyl)methyl]-2-(4-phenoxyphenoxy)acetamide]

same assay, conditions: ~600-1800 nM

Agg2 % inh [% inh ~600-1800] | Molecule
50 | COc1cc(OC)cc(OCC(=O)NC(c2ccccc2)c2cc(Cl)c3cccnc3c2O)c1 (stereo not drawn) [N-[(5-chloro-8-hydroxyquinolin-7-yl)(phenyl)methyl]-2-(3,5-dimethoxyphenoxy)acetamide]

biological target: T2, Agg-1 (Homo sapiens, UniProt O75173); experiment: Agg-1 FRET assay; format: biochemical; details: @ 22200 nM; read-out: Agg1 %
T2 sequence (O75173 213-837): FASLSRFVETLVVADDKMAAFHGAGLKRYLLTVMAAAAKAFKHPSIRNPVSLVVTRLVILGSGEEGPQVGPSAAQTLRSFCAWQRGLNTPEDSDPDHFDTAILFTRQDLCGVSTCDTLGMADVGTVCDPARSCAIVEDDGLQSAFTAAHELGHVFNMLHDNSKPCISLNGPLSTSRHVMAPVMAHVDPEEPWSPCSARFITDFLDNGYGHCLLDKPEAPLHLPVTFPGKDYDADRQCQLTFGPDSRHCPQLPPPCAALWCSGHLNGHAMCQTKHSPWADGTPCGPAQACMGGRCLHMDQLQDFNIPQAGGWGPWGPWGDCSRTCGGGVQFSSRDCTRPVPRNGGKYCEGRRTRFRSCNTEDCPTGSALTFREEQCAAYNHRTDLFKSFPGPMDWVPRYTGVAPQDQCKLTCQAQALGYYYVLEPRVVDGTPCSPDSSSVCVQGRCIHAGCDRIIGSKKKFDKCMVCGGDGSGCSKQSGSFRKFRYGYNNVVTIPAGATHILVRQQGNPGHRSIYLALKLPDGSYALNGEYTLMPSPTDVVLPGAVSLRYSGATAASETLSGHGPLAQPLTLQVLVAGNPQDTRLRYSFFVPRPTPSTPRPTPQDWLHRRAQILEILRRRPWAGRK
Text: The Agg-1/Agg-2 FRET data for N-[(8-hydroxyquinolin-2-yl)(phenyl)methyl]-2-phenoxyacetamide and 2-{[(phenoxyacetyl)amino](phenyl)methyl}quinolin-8-yl phenoxyacetate is presented in Table 1.

inhibition at 22.2 µM [%] | Molecule
46 | O=C(COc1ccccc1)NC(c1ccccc1F)c1cc(Cl)c2cccnc2c1O (stereo not drawn) [N-[(5-chloro-8-hydroxyquinolin-7-yl)(2-fluorophenyl)methyl]-2-phenoxyacetamide]

same assay, conditions: read-out: Agg1 IC50

IC50 [µM] | Molecule
11.4 | O=C(COc1ccccc1)NC(c1ccccc1Cl)c1cc([N+](=O)[O-])c2cccnc2c1O (stereo not drawn) [N-[(2-chlorophenyl)(8-hydroxy-5-nitroquinolin-7-yl)methyl]-2-phenoxyacetamide]
> 20 | O=C(COc1ccccc1)NC(c1ccc([N+](=O)[O-])cc1)c1cc(Cl)c2cccnc2c1O (stereo not drawn) [N-[(5-chloro-8-hydroxyquinolin-7-yl)(4-nitrophenyl)methyl]-2-phenoxyacetamide]
> 22 | O=C(COc1ccccc1)NC(c1ccccc1)c1cc(Cl)c2cccnc2c1O (stereo not drawn) [N-[(5-chloro-8-hydroxyquinolin-7-yl)(phenyl)methyl]-2-phenoxyacetamide]
19.3 | O=C(COc1ccccc1)NC(c1ccccc1)c1cc([N+](=O)[O-])c2cccnc2c1O (stereo not drawn) [N-[(8-hydroxy-5-nitroquinolin-7-yl)(phenyl)methyl]-2-phenoxyacetamide]
